“And” between values parts separate entries of the source, which are not always exact repeats. Identical values can stand only once. “Also recorded” adds a separate entry of the source. Where no end group is shown, it is not given here.
System: guinea pigs immunized with mycobacterial cell sonicates
Details: guinea pig, in vivo

## CAKVNIKPLQDKIC (cysteine pairing not given here) [Polypeptide (diCys Terminated), residues 1-12 of the BCG-a protein with Cys at both termini]
  DCH Reaction To 250 Micrograms Of Polypeptide (positive DCH reactions/total trials): 7/7 and 4/4 and 0/4 and 0/3 and 2/4 and 5/5 and 0/5
  DCH reaction (in words): most pronounced DCH reactions; also recorded: developed a DCH reaction
  delayed cutaneous hypersensitivity reaction (in words): more pronounced delayed cutaneous hypersensitivity reaction

Source: patent publication US4889800A (priority 1987, dated 1989)
